Here are results for 17 compounds from ChEMBL document CHEMBL4130357, “Developing potential agents against atherosclerosis: Design, synthesis and pharmacological evaluation of novel dual inhibitors of oxidative stress and Squalene Synthase activity” (Eur J Med Chem, 2017).

One test deals with Liver. The test is described as follows: Antioxidant activity in heat-inactivated Fischer-344 rat hepatic microsomes assessed as protection against Fe2+/ascorbate-induced lipid peroxidation after 45 mins by TBAR-based spectrophotometry. The format is functional, microsome. The settings on record: Fischer-344, Liver, 0.75 h.
The nature of test [1]: Antioxidant activity assessed as DPPH radical scavenging activity measured at 30 to 60 mins by UV-Visible spectrophotometric method. The class given is functional. For orientation: DPPH is a stable violet radical that fades when it is reduced.
In a further test the target is T1, Squalene synthase (Rattus norvegicus, UniProt Q02769).
T1 sequence (Q02769 whole entry): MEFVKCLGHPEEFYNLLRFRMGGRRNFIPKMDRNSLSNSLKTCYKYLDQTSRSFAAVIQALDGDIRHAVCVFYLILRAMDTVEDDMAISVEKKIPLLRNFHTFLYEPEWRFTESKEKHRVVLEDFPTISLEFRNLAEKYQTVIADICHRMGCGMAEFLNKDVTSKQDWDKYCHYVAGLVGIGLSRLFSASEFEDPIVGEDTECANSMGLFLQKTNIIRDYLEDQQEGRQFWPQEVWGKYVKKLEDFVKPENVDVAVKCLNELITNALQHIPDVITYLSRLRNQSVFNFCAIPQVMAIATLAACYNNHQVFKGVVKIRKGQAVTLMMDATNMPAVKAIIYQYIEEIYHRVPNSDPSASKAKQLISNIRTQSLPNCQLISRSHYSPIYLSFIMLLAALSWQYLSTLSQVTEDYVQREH
The test is described as follows: Inhibition of SQS in rat microsomes using [3H]-FPP as substrate preincubated for 10 mins followed by substrate addition measured after 30 mins by scintillation counting.

For test [2], the target named is T2, Prostaglandin G/H synthase 1 (Ovis aries) (UniProt P05979).
T2 sequence (whole entry): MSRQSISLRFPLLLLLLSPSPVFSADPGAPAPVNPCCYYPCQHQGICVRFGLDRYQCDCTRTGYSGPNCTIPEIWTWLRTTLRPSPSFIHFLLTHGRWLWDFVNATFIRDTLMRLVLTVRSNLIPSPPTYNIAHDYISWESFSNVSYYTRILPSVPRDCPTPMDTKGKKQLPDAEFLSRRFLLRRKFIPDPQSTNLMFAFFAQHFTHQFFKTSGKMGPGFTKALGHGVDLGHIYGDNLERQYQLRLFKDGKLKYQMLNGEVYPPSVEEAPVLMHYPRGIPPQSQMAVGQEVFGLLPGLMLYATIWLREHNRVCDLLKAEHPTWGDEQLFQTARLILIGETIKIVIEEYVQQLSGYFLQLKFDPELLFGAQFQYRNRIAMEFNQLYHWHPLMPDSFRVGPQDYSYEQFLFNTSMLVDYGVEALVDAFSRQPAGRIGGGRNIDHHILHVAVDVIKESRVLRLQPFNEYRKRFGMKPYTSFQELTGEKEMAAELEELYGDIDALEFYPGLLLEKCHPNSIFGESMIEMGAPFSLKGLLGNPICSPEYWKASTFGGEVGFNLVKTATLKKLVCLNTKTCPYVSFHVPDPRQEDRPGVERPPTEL
The test is described as follows: Inhibition of ovine COX1 at 20 uM using arachidonic acid as substrate by ELISA. On the technique in general: In an ELISA, binding on a coated surface is turned into a signal by an enzyme label.

For test [3], the system named is Mus musculus. Nature of the test: Anti-diabetic activity in HDF/STZ-induced obesity-diabetes type 2 SKH-2 mouse model assessed as reversal of body weight gain at 56 umol/kg, ip administered twice daily until 23 days measured once per week. The format is functional, organism-based.
Test [4] has as its system Mus musculus. Nature of the test: Anti-diabetic activity in HDF/STZ-induced obesity-diabetes type 2 SKH-2 mouse model assessed as reversal of body weight gain at 56 umol/kg, ip administered twice daily until 53 days measured once per week from 28th to 53 day post STZ challenge. The class given is functional, organism-based.
Test [5] relates to Mus musculus. The test is described as follows: Antihypercholesterolemic activity in HDF/STZ-induced obesity-diabetes type 2 SKH-2 mouse model assessed as increase in plasma HDL levels at 56 umol/kg, ip administered twice daily measured on day 22 and day 53 relative to untreated control. The class given is functional, organism-based.
Test [6] has as its system Mus musculus. The test is described as follows: Antihypercholesterolemic activity in HDF/STZ-induced obesity-diabetes type 2 SKH-2 mouse model assessed as decrease in plasma total cholestrol levels at 56 umol/kg, ip administered twice daily measured on day 22 and day 53 relative to untreated control. The class given is functional. The arrangement: scale not given: the % may be the effect or the level left.

Test [7] concerns Mus musculus. Nature of the test: Antihyperlipidemic activity in HDF/STZ-induced obesity-diabetes type 2 SKH-2 mouse model assessed as decrease in plasma triglyceride levels at 56 umol/kg, ip administered twice daily measured on day 22 and day 53 relative to untreated control. The format is functional.
Test [8] concerns Mus musculus. The test is described as follows: Antihyperlipidemic activity in HDF/STZ-induced obesity-diabetes type 2 SKH-2 mouse model assessed as decrease in plasma LDL levels at 56 umol/kg, ip administered twice daily measured on day 22 and day 53 relative to untreated control. The class given is functional. The arrangement: scale not given: the % may be the effect or the level left.

The test system of test [9] is Mus musculus. The test is described as follows: Antihyperlipidemic activity in HDF/STZ-induced obesity-diabetes type 2 SKH-2 mouse model assessed as increase in plasma HDL/LDL ratio at 56 umol/kg, ip administered twice daily measured on day 22 and day 53 relative to untreated control. The class given is functional.
For test [10], the target named is T2, Prostaglandin G/H synthase 1 (Ovis aries). Nature of the test: Inhibition of ovine COX1 at 50 uM using arachidonic acid as substrate by ELISA.
Test [11] concerns the target T3, Prostaglandin G/H synthase 2 (Homo sapiens) (UniProt P35354).
T3 sequence (whole entry): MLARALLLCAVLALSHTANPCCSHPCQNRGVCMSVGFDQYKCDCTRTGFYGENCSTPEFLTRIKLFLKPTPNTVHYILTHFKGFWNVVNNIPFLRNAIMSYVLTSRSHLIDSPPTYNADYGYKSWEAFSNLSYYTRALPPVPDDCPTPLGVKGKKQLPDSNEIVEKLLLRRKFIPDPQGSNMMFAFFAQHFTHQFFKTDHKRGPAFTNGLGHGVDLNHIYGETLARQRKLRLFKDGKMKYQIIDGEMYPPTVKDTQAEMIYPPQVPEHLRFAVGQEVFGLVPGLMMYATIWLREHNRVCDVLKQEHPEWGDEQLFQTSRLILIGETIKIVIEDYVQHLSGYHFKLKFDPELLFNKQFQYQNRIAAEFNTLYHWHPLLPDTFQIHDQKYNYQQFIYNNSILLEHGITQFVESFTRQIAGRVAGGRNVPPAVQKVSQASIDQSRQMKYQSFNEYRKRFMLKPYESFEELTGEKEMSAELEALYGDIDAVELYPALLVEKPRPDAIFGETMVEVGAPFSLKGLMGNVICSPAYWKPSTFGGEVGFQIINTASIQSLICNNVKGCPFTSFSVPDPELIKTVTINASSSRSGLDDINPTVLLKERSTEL
The test is described as follows: Inhibition of recombinant human COX2 at 50 uM using arachidonic acid as substrate by ELISA.

The test system of test [12] is Mus musculus. The test is described as follows: Anti-diabetic activity in HDF/STZ-induced obesity-diabetes type 2 SKH-2 mouse model assessed as reversal of glucose increase at 56 umol/kg, ip administered twice daily until 53 days measured every 5 to 10 days from day 27 to 53. The class given is functional, organism-based.

The structures appear in SMILES notation. Active and inactive are the calls of the source. The rule behind the calls is not given here.

One may read the IC50 as the midpoint of a concentration-inhibition curve. Broadly, the inhibition is the change of the read-out against control, counted positive when it falls.

Regarding `CN1CC(O)(c2ccccc2)Sc2ccccc21` (centres undefined), the IC50 came out at 8.2 µM in the test with Liver, 183 µM in test [1] and 28 µM on Squalene synthase.

In the case of `CN1CCOC(O)(c2ccc(/C=C/c3ccccc3)cc2)C1` (centres undefined), the IC50 in the test with Liver was 110 µM; in [1], > 400 µM; against Squalene synthase, 7 µM.

As to `CSc1ccccc1N(C)CC(=O)c1ccc(-c2ccccc2)cc1`, the IC50 in the test on Liver is > 1000 µM; in [1], > 400 µM; against Squalene synthase, > 50 µM.

For the compound `CN1CC(O)(c2ccc(-c3ccc(C(F)(F)F)cc3)cc2)Sc2ccccc21` (centres undefined), the IC50 in the test on Liver worked out at 14 µM; in test [1] it was 171 µM; on Squalene synthase, 14 µM.

For `CN1CC(O)(c2ccc(-c3ccccc3)cc2)SC2CCCCC21` (centres undefined), the IC50 worked out at 83 µM in the test with Liver, 271 µM in [1] and 16.5 µM at Squalene synthase. Further, the inhibition in test [2] was 89%.

On to `CN1CC(O)(c2ccc(-c3cc(C(C)(C)C)c(O)c(C(C)(C)C)c3)cc2)OC2CCCCC21` (centres undefined), for which the half-inhibitory concentration (IC50) in the test with Liver was 5.9 µM; in test [1] it was > 400 µM. Also, the result in the test with Mus musculus [3] and in the test with Mus musculus [4] was Active. The outcome in the test with Mus musculus [5] and with Mus musculus [7] was inactive. Moreover, the Activity in the test on Mus musculus [6] is 70%; in the test with Mus musculus [8], 95%. For the same compound, the “fold change (FC)” value with Mus musculus [9] is reported as 7.5.

For `Oc1ccc(/C=C/c2cc(O)cc(O)c2)cc1` [RESVERATROL], the IC50 with Liver is 15 µM; in [1] it was 96 µM; on Squalene synthase it was > 50 µM.

In the case of `CN1CCOC(O)(c2ccc(-c3ccccc3)cc2)C1` (centres undefined), the IC50 in the test with Liver was 300 µM; in [1], > 400 µM; against Squalene synthase, 33 µM. Further, the inhibition in test [10] was 38%; in [11], 100%.

Take `CN1CC(O)(c2ccc(-c3cc(C(C)(C)C)c(O)c(C(C)(C)C)c3)cc2)Sc2ccccc21` (centres undefined): the IC50 is 6.5 µM with Liver, 34 µM in test [1] and > 50 µM against Squalene synthase. In addition, the inhibition entry in [10] and in test [11] was “inactive” in each case. For the same compound, the outcome in the test on Mus musculus [3], with Mus musculus [5] and in the test on Mus musculus [12] was inactive. Also, the values for the Activity in the test on Mus musculus [6], in the test with Mus musculus [7] and in the test with Mus musculus [8] were 31%, 55% and 65%, respectively. Also, in the test with Mus musculus [9], the “fold change (FC)” value stood at 3.

Turning to `CN1CC(O)(c2ccc(-c3ccccc3)cc2)OC2CCCCC21` (centres undefined), the IC50 was 450 µM with Liver and > 400 µM in test [1].

For `CN1CC(O)(c2ccc(-c3ccccc3)cc2)Oc2ccc(-c3ccccc3)cc21` (centres undefined), the half-inhibitory concentration (IC50) is 4.9 µM in the test with Liver, > 400 µM in test [1] and > 50 µM at Squalene synthase.

Consider `CN1CC(O)(c2ccc(-c3ccc(O)cc3)cc2)Sc2ccccc21` (centres undefined), for which the IC50 with Liver was 15 µM; in test [1] it was 44 µM; at Squalene synthase, 8.5 µM.

In the case of `CN1CC(O)(c2ccc(/C=C/c3ccccc3)cc2)OC2CCCCC21` (centres undefined), the half-maximal inhibitory concentration (IC50) is 45 µM in the test with Liver and > 400 µM in [1]. Besides, the inhibition entry in test [10] and in test [11] was “inactive” throughout.

With `CN1CC(O)(c2ccccc2)Oc2ccccc21` (centres undefined), the IC50 is 7.6 µM with Liver, 152 µM in test [1] and 50 µM at Squalene synthase.

As for `OC1(c2ccc(/C=C/c3ccccc3)cc2)CN2CCCCC2CO1` (centres undefined), the half-maximal inhibitory concentration (IC50) was 42 µM with Liver and > 400 µM in test [1]. Also, the inhibition entry in [10] and in [11] was “inactive” each time.

Consider `CC(C)(Sc1cc(C(C)(C)C)c(O)c(C(C)(C)C)c1)Sc1cc(C(C)(C)C)c(O)c(C(C)(C)C)c1` [PROBUCOL], for which the 50% inhibitory concentration (IC50) with Liver is > 1000 µM; in [1] it was 234 µM.

As to `OC1(c2ccc(-c3ccccc3)cc2)CN2CCCCC2CO1` (centres undefined), the half-maximal inhibitory concentration (IC50) is 350 µM in the test on Liver, > 400 µM in [1] and 35 µM at Squalene synthase.
